According to patent publication US10004716B2, “Therapeutic/ preventive agent containing coumarin derivative as active ingredient” (NIPPON ZOKI PHARMACEUTICAL CO., LTD., priority 2014, dated 2018):

What was measured:
[1] = system: NF-κB; test: Suppressive action to NF-κB activation (luciferase reporter, HEK293T cells, TNF-α); assay type: cell-based, human; conditions: HEK293T cells with NF-κB reporter; test substance 25 μml/mL 1 hour, then TNF-α 10 ng/mL 5 hours; stimulated TNF-α = 100
Experimental: A preparation solution containing pGL4.32 [luc2P/NF-κB-RE/Hygrol] (Promega) which is an NF-κB reporter vector, pGL4.74 [hRluc/TK] (Promega) which is a control vector and Lipofectamine LTX (Life Technologies) which is a gene transfer agent was added to human embryo kidney cells (HEK293T cells) sown onto a […] whereupon there were prepared the cells which transiently express a reporter protein.
After 24 hours from the gene transfer, transient expression cells were peeled off by treating with trypsin, sown on a poly-lysine coated white 96-well plate and incubated for one night. The test substance was added to as to make its final concentration 25 μml/mL and, after pre-incubating for 1 hour, TNF-α was added thereto so as to make its final concentration 10 ng/mL followed by incubating for 5 hours more. The cells were dissolved and the activities of a firefly luciferase and a renilla luciferase were measured. Rate of the luminescent intensity by addition of each drug to the luminescent intensity by stimulation with TNF-α were calculated.

[2] = system: CTGF gene expression; test: Evaluation II: TGF-β-induced gene expression of fibrosis-related factors in NHLF cells: CTGF; assay type: cell-based, human; conditions: 30 μM test substance, 200 μg/mL pirfenidone, 30 μM DEX, 1.0 μM TPCA-1 or 10 μM FP 2 hours, then TGF-β 0.5 ng/mL 4 hours, n = 4
Experimental: (§1) NHLF cells were sown so as to make their amount 5×10^4 cells/well to each well of a 12-well plate and incubated to an extent of 80% confluent in a medium where fibroblast growth medium 2 supplement mix (FGM-2 SingleQuots, Lonza) was added to a fibroblast basal medium (FBM, Lonza). After that, incubation was conducted for 2 hours in a DMEM medium containing 30 μM of a test substance, 200 μg/mL of pirfenidone, 30 μM of dexamethasone (DEX), 1.0 μM of TPCA-1 or 10 μM of fluticasone propionate (FP) and, after TGF-β was added thereto so as to make its final concentration 0.5 ng/mL, incubation was carried out for 4 hours more.
(§2) With regard to the extraction of RNA from NHLF cells, the synthesis of cDNA from RNA and the action of the test substance to gene expression of fibrosis-related factors [CFGF, TGF-β1, fibronectin and Col 1], the tests were carried out in the same manners as in (2) and (3) of the above Test Example 3.

[3] = system: TGF-β1 gene expression; test: Evaluation II: TGF-β-induced gene expression of fibrosis-related factors in NHLF cells: TGF-β1; assay type: cell-based, human; conditions: 30 μM test substance, 200 μg/mL pirfenidone, 30 μM DEX, 1.0 μM TPCA-1 or 10 μM FP 2 hours, then TGF-β 0.5 ng/mL 4 hours, n = 4
Experimental: as §1, §2

[4] = system: fibronectin gene expression; test: Evaluation II: TGF-β-induced gene expression of fibrosis-related factors in NHLF cells: fibronectin; assay type: cell-based, human; conditions: 30 μM test substance, 200 μg/mL pirfenidone, 30 μM DEX, 1.0 μM TPCA-1 or 10 μM FP 2 hours, then TGF-β 0.5 ng/mL 4 hours, n = 4
Experimental: as §1, §2

[5] = system: Col 1 gene expression; test: Evaluation II: TGF-β-induced gene expression of fibrosis-related factors in NHLF cells: Col 1; assay type: cell-based, human; conditions: 30 μM test substance, 200 μg/mL pirfenidone, 30 μM DEX, 1.0 μM TPCA-1 or 10 μM FP 2 hours, then TGF-β 0.5 ng/mL 4 hours, n = 4
Experimental: as §1, §2

[6] = system: mice where pulmonary fibrosis was induced by bleomycin; test: Lung wet weight increase of mice where pulmonary fibrosis was induced by bleomycin; assay type: in vivo; conditions: ICR male mice, bleomycin 2 mg/kg i.v. 5 days; test substance 50 mg/kg or pirfenidone 200 mg/kg per os twice daily for 2 weeks; normal control 205, diseased control 303
Experimental: Bleomycin (2 mg/kg) was repeatedly injected intravenously for 5 days to ICR male mice. The mice were organized into 4 groups of normal control group, diseased control group, test substance-administered group and pirfenidone-administered group.
A test substance was suspended in 0.5 w/v % carboxymethyl cellulose sodium (CMC) and 50 mg/kg thereof was repeatedly administered per os with stirring twice daily for 2 weeks using an oral sonde for rats. Pirfenidone was suspended in 0.5 w/v % CMC and 200 mg/kg thereof was repeatedly administered per os with stirring twice daily for 2 weeks using an oral sonde for rats. To the normal control group and the diseased control group, 0.5 w/v % CMC was repeatedly administered per os according to the same administration schedule. After finishing the administration period, both lungs were excised from the mice and their wet weight was measured.

Structure (SMILES) | Luminescent Intensity to Stimulated TNF-α (%) [1] | Copy Numbers per 10000 Copies of GAPDH CTGF [2] | Copy Numbers per 10000 Copies of GAPDH TGF-β1 [3] | Copy Numbers per 10000 Copies of GAPDH Fibronectin [4] | Copy Numbers per 10000 Copies of GAPDH Col 1 [5] | Wet Lung Weight [6]
O=c1oc2c(OS(=O)(=O)c3cccc([N+](=O)[O-])c3)cccc2cc1NS(=O)(=O)c1cccc([N+](=O)[O-])c1 [Compound 17, 3-[(3-Nitrophenyl)sulfonylamino]-2-oxochromen-8-yl 3-nitrobenzenesulfonate] | 0.1% |  |  |  |  | 
C[C@@H]1C[C@H]2[C@@H]3CCC4=CC(=O)C=C[C@]4(C)[C@@]3(F)[C@@H](O)C[C@]2(C)[C@@]1(O)C(=O)CO [DEX, dexamethasone] |  | 1010.1 copies per 10000 copies of GAP | 546.9 copies per 10000 copies of GAP | 4314.6 copies per 10000 copies of GAP | 610.7 copies per 10000 copies of GAP | 
CCC(=O)O[C@]1(C(=O)SCF)[C@H](C)C[C@H]2[C@@H]3C[C@H](F)C4=CC(=O)C=C[C@]4(C)[C@@]3(F)[C@@H](O)C[C@@]21C [FP, fluticasone propionate] |  | 1166.8 copies per 10000 copies of GAP | 450.6 copies per 10000 copies of GAP | 3603.2 copies per 10000 copies of GAP | 593.3 copies per 10000 copies of GAP | 
Cc1ccc(=O)n(-c2ccccc2)c1 [Pirfenidone] |  | 180.6 copies per 10000 copies of GAP | 962.5 copies per 10000 copies of GAP | 1689.7 copies per 10000 copies of GAP | 1027.6 copies per 10000 copies of GAP | 242 mg
NC(=O)Nc1sc(-c2ccc(F)cc2)cc1C(N)=O [TPCA-1] |  | 461.2 copies per 10000 copies of GAP | 886.9 copies per 10000 copies of GAP | 3757.9 copies per 10000 copies of GAP | 840.4 copies per 10000 copies of GAP | 
